Source: patent US7402548B2, “Benzoxazole compounds, process for producing the same and herbicides” (Kyoyu Agri Co., Ltd., priority 2000, dated 2008)

Legend:
[1] = system: morning glory; assay: Foliar spread test for upland field; assay type: in vivo, Ipomoea spps.; parameters: key: 0 = normal development, 5 = all killed (6 ranks vs. untreated); details: foliar spray, 500 ppm, 3 weeks, glass house 25° C.
Protocol: (§1) The herbicidal effects are evaluated according to the following 6 ranks as compared with non-treated district. (0: normal development, 1: Less damaged, 2: Slightly damaged, 3: Moderately damaged, 4: Severely damaged, 5: All killed). Incidentally, “-” in the column means not investigated.
(§2) Wagner pots, each having an area of 1/5000 are, were packed with volcanic ash soil and then each seed of corn, soybean, cotton, wheat, solgum, sugar beat, Large crabgrass, barnyardgrjass, green foxtail, blackgrass, annual bluegrass, common lambsquarters, livid amaranth, velvetleaf, morning glory, Xanthium pensylvanicum and Cassia obtusifolia was planted, covered with soil and grown in a glass house at an average temperature of 25° C. for about 2 weeks.
(§3) Each wettable powder of the desired compounds (I) shown in Tables 1 to 21, 24, 25, 28 and 29 prepared in accordance with Example 2 was diluted to 500 ppm with water containing a surfactant (0.5%) and then uniformly sprayed on the above respective plants.
(§4) After these plants were controlled in a glass house at an average temperature of 25° C. for 3 weeks, the herbicidal effects thereof were investigated.
(§5) The herbicidal effects were evaluated according to the evaluation method described in the above (1).

[2] = system: green foxtail; assay: Foliar spread test for upland field; assay type: in vivo, Setaria viridis; parameters: key: 0 = normal development, 5 = all killed (6 ranks vs. untreated); details: foliar spray, 500 ppm, 3 weeks, glass house 25° C.
Protocol: as §1, §2, §3, §4, §5

[3] = system: sugar beat; assay: Foliar spread test for upland field; assay type: in vivo; parameters: key: 0 = normal development, 5 = all killed (6 ranks vs. untreated); details: foliar spray, 500 ppm, 3 weeks, glass house 25° C.
Protocol: as §1, §2, §3, §4, §5

[4] = system: solgum; assay: Foliar spread test for upland field; assay type: in vivo; parameters: key: 0 = normal development, 5 = all killed (6 ranks vs. untreated); details: foliar spray, 500 ppm, 3 weeks, glass house 25° C.
Protocol: as §1, §2, §3, §4, §5

[5] = system: cotton; assay: Foliar spread test for upland field; assay type: in vivo; parameters: key: 0 = normal development, 5 = all killed (6 ranks vs. untreated); details: foliar spray, 500 ppm, 3 weeks, glass house 25° C.
Protocol: as §1, §2, §3, §4, §5

[6] = system: wheat; assay: Foliar spread test for upland field; assay type: in vivo; parameters: key: 0 = normal development, 5 = all killed (6 ranks vs. untreated); details: foliar spray, 500 ppm, 3 weeks, glass house 25° C.
Protocol: as §1, §2, §3, §4, §5

[7] = system: corn; assay: Foliar spread test for upland field; assay type: in vivo; parameters: key: 0 = normal development, 5 = all killed (6 ranks vs. untreated); details: foliar spray, 500 ppm, 3 weeks, glass house 25° C.
Protocol: as §1, §2, §3, §4, §5

[8] = system: soybean; assay: Foliar spread test for upland field; assay type: in vivo; parameters: key: 0 = normal development, 5 = all killed (6 ranks vs. untreated); details: foliar spray, 500 ppm, 3 weeks, glass house 25° C.
Protocol: as §1, §2, §3, §4, §5

[9] = system: morning glory; assay: Soil treatment test for upland field; assay type: in vivo, Ipomoea spps.; parameters: key: 0 = normal development, 5 = all killed; details: 500 g/ha, 3 weeks, glass house 25° C.
Protocol: as §1
(§6) Wagner pots, each having an area of 1/5000 are, were packed with Ube soil (alluvial soil), and then each seed of corn, soybean, cotton, wheat, solgum, sugar beat, Large crabgrass, barnyard grass, green foxtail, blackgrass, annual bluegrass, common lambsquarters, livid amaranth, velvetleaf, morning glory, common Cocklebur (Xanthium strumarium) and sicklepod (Cassia obtusifolia) were planted and covered with soil.
(§7) Each wettable powder of the desired compounds (I) shown in Tables 1 to 21, 24, 25, 28 and 29 prepared in accordance with Example 2 was diluted with water containing a surfactant (0.05%) and uniformly sprayed on the surface of each soil so that an effective concentration of the compound (I) in each herbicide became 500 g/ha.
(§8) These plants were controlled in a glass house at an average temperature of 25° C. for 3 weeks, and then herbicidal effects thereof were investigated.
as §5

[10] = system: velvetleaf; assay: Foliar spread test for upland field; assay type: in vivo, Abutilon theophrasti; parameters: key: 0 = normal development, 5 = all killed (6 ranks vs. untreated); details: foliar spray, 500 ppm, 3 weeks, glass house 25° C.
Protocol: as §1, §2, §3, §4, §5

[11] = system: Large crabgrass; assay: Foliar spread test for upland field; assay type: in vivo, Digitaria adscendens; parameters: key: 0 = normal development, 5 = all killed (6 ranks vs. untreated); details: foliar spray, 500 ppm, 3 weeks, glass house 25° C.
Protocol: as §1, §2, §3, §4, §5

[12] = system: velvetleaf; assay: Soil treatment test for upland field; assay type: in vivo, Abutilon theophrasti; parameters: key: 0 = normal development, 5 = all killed; details: 500 g/ha, 3 weeks, glass house 25° C.
Protocol: as §1, §6, §7, §8, §5

[13] = system: blackgrass; assay: Foliar spread test for upland field; assay type: in vivo, Alopecurus aegualis; parameters: key: 0 = normal development, 5 = all killed (6 ranks vs. untreated); details: foliar spray, 500 ppm, 3 weeks, glass house 25° C.
Protocol: as §1, §2, §3, §4, §5

[14] = system: annual bluegrass; assay: Soil treatment test for upland field; assay type: in vivo, Poa annua; parameters: key: 0 = normal development, 5 = all killed; details: 500 g/ha, 3 weeks, glass house 25° C.
Protocol: as §1, §6, §7, §8, §5

[15] = system: livid amaranth; assay: Soil treatment test for upland field; assay type: in vivo, Amaranthus lividus; parameters: key: 0 = normal development, 5 = all killed; details: 500 g/ha, 3 weeks, glass house 25° C.
Protocol: as §1, §6, §7, §8, §5

[16] = system: sugar beat; assay: Soil treatment test for upland field; assay type: in vivo; parameters: key: 0 = normal development, 5 = all killed; details: 500 g/ha, 3 weeks, glass house 25° C.
Protocol: as §1, §6, §7, §8, §5

[17] = system: solgum; assay: Soil treatment test for upland field; assay type: in vivo; parameters: key: 0 = normal development, 5 = all killed; details: 500 g/ha, 3 weeks, glass house 25° C.
Protocol: as §1, §6, §7, §8, §5

[18] = system: wheat; assay: Soil treatment test for upland field; assay type: in vivo; parameters: key: 0 = normal development, 5 = all killed; details: 500 g/ha, 3 weeks, glass house 25° C.
Protocol: as §1, §6, §7, §8, §5

[19] = system: corn; assay: Soil treatment test for upland field; assay type: in vivo; parameters: key: 0 = normal development, 5 = all killed; details: 500 g/ha, 3 weeks, glass house 25° C.
Protocol: as §1, §6, §7, §8, §5

[20] = system: soybean; assay: Soil treatment test for upland field; assay type: in vivo; parameters: key: 0 = normal development, 5 = all killed; details: 500 g/ha, 3 weeks, glass house 25° C.
Protocol: as §1, §6, §7, §8, §5

[21] = system: common lambsquarters; assay: Soil treatment test for upland field; assay type: in vivo, Chenopodium album; parameters: key: 0 = normal development, 5 = all killed; details: 500 g/ha, 3 weeks, glass house 25° C.
Protocol: as §1, §6, §7, §8, §5

[22] = system: blackgrass; assay: Soil treatment test for upland field; assay type: in vivo, Alopecurus aegualis; parameters: key: 0 = normal development, 5 = all killed; details: 500 g/ha, 3 weeks, glass house 25° C.
Protocol: as §1, §6, §7, §8, §5

[23] = system: green foxtail; assay: Soil treatment test for upland field; assay type: in vivo, Setaria viridis; parameters: key: 0 = normal development, 5 = all killed; details: 500 g/ha, 3 weeks, glass house 25° C.
Protocol: as §1, §6, §7, §8, §5

[24] = system: Large crabgrass; assay: Soil treatment test for upland field; assay type: in vivo, Digitaria adscendens; parameters: key: 0 = normal development, 5 = all killed; details: 500 g/ha, 3 weeks, glass house 25° C.
Protocol: as §1, §6, §7, §8, §5

[25] = system: barnyardgrjass; assay: Foliar spread test for upland field; assay type: in vivo, Eschinochloa crusgalli; parameters: key: 0 = normal development, 5 = all killed (6 ranks vs. untreated); details: foliar spray, 500 ppm, 3 weeks, glass house 25° C.
Protocol: as §1, §2, §3, §4, §5

[26] = system: livid amaranth; assay: Foliar spread test for upland field; assay type: in vivo, Amaranthus lividus; parameters: key: 0 = normal development, 5 = all killed (6 ranks vs. untreated); details: foliar spray, 500 ppm, 3 weeks, glass house 25° C.
Protocol: as §1, §2, §3, §4, §5

[27] = system: annual bluegrass; assay: Foliar spread test for upland field; assay type: in vivo, Poa annua; parameters: key: 0 = normal development, 5 = all killed (6 ranks vs. untreated); details: foliar spray, 500 ppm, 3 weeks, glass house 25° C.
Protocol: as §1, §2, §3, §4, §5

[28] = system: barnyard grass; assay: Soil treatment test for upland field; assay type: in vivo, Eschinochloa crusgalli; parameters: key: 0 = normal development, 5 = all killed; details: 500 g/ha, 3 weeks, glass house 25° C.
Protocol: as §1, §6, §7, §8, §5

[29] = system: common lambsquarters; assay: Foliar spread test for upland field; assay type: in vivo, Chenopodium album; parameters: key: 0 = normal development, 5 = all killed (6 ranks vs. untreated); details: foliar spray, 500 ppm, 3 weeks, glass house 25° C.
Protocol: as §1, §2, §3, §4, §5

| Compound | Effects Morning glory [1] | Effects Green foxtail [2] | Effects Sugar beat [3] | Effects Solgum [4] | Effects Sotton [5] | Effects Wheat [6] | Effects Corn [7] | Effects Soybean [8] | Effects Morning glory [9] | Effects Velvetleaf [10] | Effects Large crabgrass [11] | Effects Velvetleaf [12] | Effects Blackgrass [13] | Effects Annual bluegrass [14] | Effects Livid amaranth [15] | Effects Sugar beat [16] | Effects Solgum [17] | Effects Wheat [18] | Effects Corn [19] | Effects Soybean [20] | other results |
| --- | --- | --- | --- | --- | --- | --- | --- | --- | --- | --- | --- | --- | --- | --- | --- | --- | --- | --- | --- | --- | --- |
| CC(=Cc1cccc(C(F)(F)F)c1)c1nc2cc(C#N)c(F)cc2o1 [I-c-135] | 5 | 5 | 5 | 3 | 4 | 2 | 2 | 4 | 4 | 4 | 4 | 5 | 5 | 5 | 5 | 5 | 1 | 1 | 1 | 2 | Effects Common lambsquarters [21]: 5; Effects Blackgrass [22]: 5; Effects Green foxtail [23]: 5; Effects Large crabgrass [24]: 5; Effects Barnyardgrass [25]: 3; Effects Livid amaranth [26]: 5; Effects Annual bluegrass [27]: 5; Effects Barnyardgrass [28]: 4; Effects Common lambsquarters [29]: 5 |
| CCC(=Cc1cccc(C(F)(F)F)c1)c1nc2cc(Cl)c(C)cc2o1 [I-c-131] | 5 | 4 | 4 | 2 | 5 | 2 | 3 | 5 | 5 | 4 | 4 | 5 | 4 | 5 | 5 | 5 | 3 | 1 | 1 | 1 | Effects Common lambsquarters [21]: 5; Effects Blackgrass [22]: 5; Effects Green foxtail [23]: 5; Effects Large crabgrass [24]: 5; Effects Barnyardgrass [25]: 3; Effects Livid amaranth [26]: 5; Effects Annual bluegrass [27]: 4; Effects Barnyardgrass [28]: 5; Effects Common lambsquarters [29]: 5 |
| CCC(=Cc1cccc(C(F)(F)F)c1)c1nc2cc([N+](=O)[O-])ccc2o1 [I-c-72] | 5 | 4 | 4 | 3 | 4 | 2 | 3 | 5 | 4 | 3 | 4 | 5 | 3 | 5 | 5 | 5 | 3 | 2 | 2 | 5 | Effects Common lambsquarters [21]: 5; Effects Blackgrass [22]: 5; Effects Green foxtail [23]: 5; Effects Large crabgrass [24]: 5; Effects Barnyardgrass [25]: 3; Effects Livid amaranth [26]: 5; Effects Annual bluegrass [27]: 4; Effects Barnyardgrass [28]: 5; Effects Common lambsquarters [29]: 5 |
| CC/C(=C\c1cccc(C(F)(F)F)c1)c1nc2cc(Cl)ccc2o1 [I-c-55, (E)-2-(5-chlorobenzoxazol-2-yl)-1-(3-trifluoromethylphenyl)butene] | 5 | 5 | 5 | 3 | 4 | 3 | 3 | 5 | 5 | 4 | 4 | 5 | 4 | 5 | 5 | 5 | 1 | 0 | 1 | 4 | Effects Common lambsquarters [21]: 5; Effects Blackgrass [22]: 5; Effects Green foxtail [23]: 5; Effects Large crabgrass [24]: 5; Effects Barnyardgrass [25]: 4; Effects Livid amaranth [26]: 4; Effects Annual bluegrass [27]: 4; Effects Barnyardgrass [28]: 5; Effects Common lambsquarters [29]: 5 |
| CCCC(=Cc1cccc(C(F)(F)F)c1)c1nc2cc(C(F)(F)F)ccc2o1 [I-c-88] | 5 | 5 | 5 | 3 | 5 | 2 | 4 | 5 | 5 | 4 | 4 | 5 | 5 | 5 | 5 | 5 | 4 | 2 | 3 | 5 | Effects Common lambsquarters [21]: 5; Effects Blackgrass [22]: 5; Effects Green foxtail [23]: 5; Effects Large crabgrass [24]: 5; Effects Barnyardgrass [25]: 2; Effects Livid amaranth [26]: 5; Effects Annual bluegrass [27]: 4; Effects Barnyardgrass [28]: 5; Effects Common lambsquarters [29]: 5 |
